# ChEMBL document CHEMBL5584341, “Discovery of Potent, Specific, and Orally Available NLRP3 Inflammasome Inhibitors Based on Pyridazine Scaffolds for the Treatment of Septic Shock and Peritonitis” (J Med Chem, 2024)
# Legend:
# [1] = Inhibition of IL-1beta release in PMA-differentiated/ LPS and nigericin stimulated human THP-1 cells at 0.5 uM pretreated with LPS for 3 hrs followed by incubation with compound for 40 mins and later stimulated with nigericin for 40 mins by ELISA; type: functional; settings: THP-1, 1.333 h, time 80 min
# [2] = Inhibition of IL-1beta release in PMA-differentiated/ LPS and nigericin stimulated human THP-1 cells at 0.1 uM pretreated with LPS for 3 hrs followed by incubation with compound for 40 mins and later stimulated with nigericin for 40 mins by ELISA; type: functional; settings: THP-1, 1.333 h, time 80 min
# [3] = Inhibition of IL-1beta release in PMA-differentiated/ LPS and nigericin stimulated human THP-1 cells pretreated with LPS for 3 hrs followed by incubation with compound for 40 mins and later stimulated with nigericin for 40 mins by ELISA; type: functional, cell-based
# [4] = target: hERG (KCNH2) (Homo sapiens, UniProt Q12809); assay: Inhibition of human ERG at 20 uM relative to control
# [5] = Metabolic stability in human liver microsomes assessed as half life at 10 uM […] in presence of NADPH by LC-MS/MS analysis; type: ADME, Microsome
# [6] = Metabolic stability in human liver microsomes assessed as intrinsic clearance per g protein at 10 uM […] in presence of NADPH by LC-MS/MS analysis; type: ADME, Microsome
# [7] = test system: Mus musculus; assay: Antiinflammatory activity against LPS induced septic shock in BALB/c mouse assessed as increase in survival rate at 25 mg/kg, ip pretreated for 1 hr followed by LPS stimulation and measured after 72 hrs; type: functional; settings: time 73 hrs
# Chain of hERG (KCNH2) (Q12809 whole entry): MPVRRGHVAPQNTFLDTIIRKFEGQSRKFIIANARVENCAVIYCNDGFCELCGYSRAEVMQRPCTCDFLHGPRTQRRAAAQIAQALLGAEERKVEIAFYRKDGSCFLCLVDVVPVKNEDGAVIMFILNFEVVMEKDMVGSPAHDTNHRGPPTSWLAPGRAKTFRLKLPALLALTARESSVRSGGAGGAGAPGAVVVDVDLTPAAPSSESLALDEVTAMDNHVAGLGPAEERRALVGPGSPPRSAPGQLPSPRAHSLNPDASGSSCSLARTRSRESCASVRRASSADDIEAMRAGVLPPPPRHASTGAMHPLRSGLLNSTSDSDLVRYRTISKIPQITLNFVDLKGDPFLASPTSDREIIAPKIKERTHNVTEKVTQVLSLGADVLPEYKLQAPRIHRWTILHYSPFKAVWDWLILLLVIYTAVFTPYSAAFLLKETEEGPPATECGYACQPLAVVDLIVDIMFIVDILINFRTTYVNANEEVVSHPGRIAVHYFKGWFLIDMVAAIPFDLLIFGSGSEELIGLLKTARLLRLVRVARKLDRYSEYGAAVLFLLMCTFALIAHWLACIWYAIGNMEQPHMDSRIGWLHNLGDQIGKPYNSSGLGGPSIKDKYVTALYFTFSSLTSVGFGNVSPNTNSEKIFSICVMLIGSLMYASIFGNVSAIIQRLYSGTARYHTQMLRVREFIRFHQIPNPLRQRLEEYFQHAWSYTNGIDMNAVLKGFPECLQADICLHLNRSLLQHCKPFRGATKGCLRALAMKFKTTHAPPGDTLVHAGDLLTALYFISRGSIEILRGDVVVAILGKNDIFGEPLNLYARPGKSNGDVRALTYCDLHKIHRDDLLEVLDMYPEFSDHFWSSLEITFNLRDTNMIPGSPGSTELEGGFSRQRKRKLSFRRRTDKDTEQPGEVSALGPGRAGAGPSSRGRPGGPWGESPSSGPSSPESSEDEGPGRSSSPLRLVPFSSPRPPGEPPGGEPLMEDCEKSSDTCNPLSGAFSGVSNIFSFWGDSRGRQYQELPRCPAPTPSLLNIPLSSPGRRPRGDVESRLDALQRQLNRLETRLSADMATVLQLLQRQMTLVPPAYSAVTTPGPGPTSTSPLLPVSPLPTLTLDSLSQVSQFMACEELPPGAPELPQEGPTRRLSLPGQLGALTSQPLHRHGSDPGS
SMILES,IC50 [3],half-life at 10 µM [5],intrinsic clearance [6],inhibition at 0.5 µM [1],inhibition at 0.1 µM [2],inhibition at 20 µM [4],Activity [7]
CN1CCC[C@H](Nc2nnc(-c3ccc(C(F)(F)F)cc3O)c3c2C2CCC3C2)C1 (some centres undefined),,,,3.09%,5.31%,,
N#Cc1ccc(-c2nnc(N[C@@H]3CCCN(C4CC(F)(F)C4)C3)c3c2C2CCC3CC2)c(O)c1,,,,91.5%,51.7%,,
CN1CC[C@@H](Nc2nnc(-c3ccc(C(F)(F)F)cc3O)c3c2C2CCC3C2)C1 (some centres undefined),,,,32.7%,12.1%,,
Oc1cc(C(F)(F)F)ccc1-c1nnc(N[C@@H]2CCCN(C3CCOC3)C2)c2c1C1CCC2CC1 (some centres undefined),49 nM,,,96.8%,95.2%,,
CN1C[C@H](Nc2nnc(-c3ccc4occc4c3O)c3c2C2CCC3CC2)CC(F)(F)C1,,,,97.7%,55.5%,,
CN1CCO[C@H](CNc2nnc(-c3ccc4occc4c3O)c3c2C2CCC3CC2)C1,,,,36.5%,9.42%,,
Oc1c(-c2nnc(N[C@@H]3CCOC3)c3c2C2CCC3CC2)ccc2occc12,,,,30%,25%,,
CC(C)(F)CN1CCC[C@@H](Nc2nnc(-c3ccc(C(F)(F)F)cc3O)c3c2C2CCC3CC2)C1,,,,95.8%,55.4%,,
OC[C@@H](O)CNc1nnc(-c2ccc(C(F)(F)F)cc2O)c2c1C1CCC2CC1,,,,74.5%,20.3%,,
CC(C)(O)c1coc(S(=O)(=O)NC(=O)Nc2c3c(cc4c2CCC4)CCC3)c1,8 nM,,,99.3%,99.2%,,60%
Oc1cc(C(F)(F)F)ccc1-c1nnc(N[C@@H]2CCCN(CC(F)F)C2)c2c1C1CCC2CC1,,,,73.8%,19.7%,,
Oc1cc(C(F)(F)F)ccc1-c1nnc(N[C@@H]2CCCC[C@H]2O)c2c1C1CCC2C1 (some centres undefined),79 nM,,,95.6%,43.5%,57.7%,
Oc1cc(C(F)(F)F)ccc1-c1nnc(N[C@@H]2CCC[C@H](O)C2)c2c1C1CCC2CC1,,,,90.8%,45%,,
Oc1cc(OC(F)(F)F)ccc1-c1nnc(N[C@@H]2CCCN(C3CC(F)(F)C3)C2)c2c1C1CCC2CC1,,,,93.2%,46.5%,,
CC(F)(F)CN1CCC[C@@H](Nc2nnc(-c3ccc(C(F)(F)F)cc3O)c3c2C2CCC3CC2)C1,,,,49.9%,29%,,
Oc1cc(C(F)(F)F)ccc1-c1nnc(N[C@@H]2CCCN(C3COC3)C2)c2c1C1CCC2CC1,,,,96.5%,52.9%,,
N#CCN1CCC[C@@H](Nc2nnc(-c3ccc(C(F)(F)F)cc3O)c3c2C2CCC3C2)C1 (some centres undefined),,,,77%,7.6%,,
Cc1ccc(-c2nnc(N[C@@H]3CCCN(C4CC(F)(F)C4)C3)c3c2C2CCC3CC2)c(O)c1,53 nM,,,96.6%,60.2%,63.8%,

# Now from value to molecule, other results behind:
IC50 [3],half-life at 10 µM [5],intrinsic clearance [6],SMILES,inhibition at 0.5 µM [1],inhibition at 0.1 µM [2],inhibition at 20 µM [4],Activity [7]
87 nM,,,Oc1cc(C(F)(F)F)ccc1-c1nnc(N[C@@H]2CCCN(CC3CC3)C2)c2c1C1CCC2C1 (some centres undefined),97.2%,83.9%,,
27 nM,,,CCN1CCC[C@@H](Nc2nnc(-c3ccc(C(F)(F)F)cc3O)c3c2C2CCC3C2)C1 (some centres undefined),96.3%,92.5%,,
26 nM,,,Oc1cc(Cl)ccc1-c1nnc(N[C@@H]2CCCN(C3CC(F)(F)C3)C2)c2c1C1CCC2CC1,95.3%,88%,23.9%,
103 nM,,,Oc1cc(C(F)(F)F)ccc1-c1nnc(N[C@@H]2CCCNC2)c2c1C1CCC2CC1,94.3%,46.5%,,
49 nM,,,Oc1cc(C(F)(F)F)ccc1-c1nnc(N[C@@H]2CCCN(C3CCC3)C2)c2c1C1CCC2C1 (some centres undefined),97.2%,94.6%,,
76 nM,,,Oc1cc(C(F)(F)F)ccc1-c1nnc(N[C@@H]2CCCN(C3CC(F)(F)C3)C2)c2c1C1CCC2C1 (some centres undefined),96.3%,72.8%,,
1 nM,> 2 h,< 12 mL/min,[2H]C([2H])([2H])C([2H])([2H])N1CCC[C@@H](Nc2nnc(-c3ccc4occc4c3O)c3c2C2CCC3CC2)C1,98.5%,98.6%,85.8%,
25 nM,,,Oc1cc(C(F)(F)F)ccc1-c1nnc(N[C@@H]2CCCN(C3CC(F)(F)C3)C2)c2c1C1CCC2CC1,97.4%,96.3%,15.5%,
2 nM,0.745 h,31 mL/min,Oc1c(-c2nnc(N[C@@H]3CCCN(C4CC(F)(F)C4)C3)c3c2C2CCC3CC2)ccc2occc12,98.6%,98.5%,-1.03%,
38 nM,,,CN1CCC[C@@H](Nc2nnc(-c3ccc(C(F)(F)F)cc3O)c3c2C2CCC3C2)C1 (some centres undefined),96.9%,95%,,
9 nM,,,Oc1cc(C(F)(F)F)ccc1-c1nnc(N[C@@H]2CCCC[C@H]2O)c2ccccc12,97.8%,98.3%,86%,
6 nM,> 2 h,< 12 mL/min,Oc1c(-c2nnc(N[C@@H]3CCCC[C@H]3O)c3c2C2CCC3CC2)ccc2occc12,96.3%,94.9%,60%,
27 nM,,,Oc1cc(C(F)(F)F)ccc1-c1nnc(N[C@@H]2CCCN(C3CCC3)C2)c2c1C1CCC2CC1,97.1%,96.8%,,
4 nM,1.16 h,20 mL/min,Oc1c(-c2nnc(N[C@@H]3CCC[C@H](O)C3)c3c2C2CCC3CC2)ccc2occc12,98.2%,97.2%,59%,
1 nM,> 2 h,< 12 mL/min,CCN1CCC[C@@H](Nc2nnc(-c3ccc4occc4c3O)c3c2C2CCC3CC2)C1,98.3%,98.6%,85.3%,
12 nM,,,Cc1c(N[C@@H]2CCCC[C@H]2O)nnc(-c2ccc(C(F)(F)F)cc2O)c1C,98.3%,97.8%,,
38 nM,,,CN1CCC[C@@H](Nc2nnc(-c3ccc(C(F)(F)F)cc3O)c3c2C2CCC3CC2)C1,97.4%,97%,,
4 nM,> 2 h,< 12 mL/min,CC(CO)N1CCC[C@@H](Nc2nnc(-c3ccc4occc4c3O)c3c2C2CCC3CC2)C1 (some centres undefined),99%,98.8%,71%,
6 nM,,,Oc1cc(C(F)(F)F)ccc1-c1nnc(N[C@@H]2CCCC[C@H]2O)c2c1CCCC2,98.3%,92.4%,84.1%,
42 nM,,,OCCN1CCC[C@@H](Nc2nnc(-c3ccc(C(F)(F)F)cc3O)c3c2C2CCC3CC2)C1,99.2%,98.6%,,
124 nM,,,Oc1cc(C(F)(F)F)ccc1-c1nnc(N[C@@H]2CCCC[C@H]2O)c2c1C1CCC2CC1,85.8%,35.9%,-1.93%,
5 nM,> 2 h,< 12 mL/min,CN1C[C@H](F)C[C@@H](Nc2nnc(-c3ccc4occc4c3O)c3c2C2CCC3CC2)C1,98.6%,98.6%,78.5%,
57 nM,,,Oc1c(-c2nnc(N[C@@H]3CCCN(C4CC(F)(F)C4)C3)c3c2C2CCC3CC2)ccc2sccc12,96.9%,61.9%,69.4%,
